We go through one compound from patent US11925653B2, “Combination therapy effective against microorganisms, including drug resistant microorganisms” (Fleurir ABX LLC, priority 2021, dated 2024).

One series deals with Enterococcus faecalis. The series can be described thus: minimum bactericidal concentration (MBC) assay. It is filed as cell-based. The method, then: (§1) Synergy was also assayed by both agar, and broth microdilution methods. Additional information gathered about the synergistic effect of the described composition as a combination therapy was evaluated by determining bacterial killing effect. This was performed as described above for the checkerboard synergy assay with the exception that the bacterial count in an assay well was determined by plating at the beginning of the experiment, and identifying at the end of incubation for an assay well where growth was inhibited. This has been adapted from both the broth microdilution, and the bactericidal assays (Clinical Laboratory Standards Institute (1999) Methods for Determining Bactericidal Activity of Antimicrobial Agents; Approved Guideline M26-A, Vol. 19, No. 18). […] The value derived was the reduction in bacterial numbers (viability) for the compounds when alone versus the described composition comprising the combined antibiotics.
(§2) As there is no published definition for bactericidal synergy, MIC metric was utilized.

The test system of another series is Pseudomonas aeruginosa. The series can be described thus: minimum bactericidal concentration (MBC) assay. Format: cell-based. The method, then:
as §1, §2

For another series, the system named is Staphylococcus aureus. The series can be described thus: minimum bactericidal concentration (MBC) assay. Format: cell-based. The procedure:
as §1, §2

A further series concerns bacteria. In words: spontaneous mutational frequency (SMF; resistance). Format: cell-based. To be noted: resistant colonies observed divided by total inoculum; plates with 4-fold MIC of the combination or 2-fold MIC of each antibiotic alone. The procedure: MIC was further evaluated to confirm resistance, and the spontaneous mutational frequency was calculated based on the following equation: […]
The spontaneous mutational frequency (SMF; resistance) was calculated as the number of resistant colonies observed divided by the total inoculum.

Series [1] in a line: representative pharmacokinetic parameters. It is filed as in vivo. The text has this: The therapeutically effective amount may be modified by pharmacokinetic, and pharmacodynamic analysis as is understood in the field. In some embodiments, the novel composition may be provided prophylactically or preventatively or protectively, which may, in some instances, be at or below a therapeutically effective amount.

On to `C[C@@H]1O[C@@H]1P(=O)(O)O` [Fosfomycin, cis-1,2-epoxypropyl phosphonic acid], for which the “MBC, lowest concentration providing a >3-log reduction within 24 hours (Combo as F/DP/SM; second compound as DP/SM)” value in the series on Enterococcus faecalis (Enterococcus faecalis (ATCC 29212)) is given as not below 512 μg/ml; with Enterococcus faecalis (Enterococcus faecalis (MGH-01) (VanA)) it was not below 512 μg/ml; in the series on Enterococcus faecalis (Enterococcus faecalis (MGH-06)), 512 μg/ml; with Pseudomonas aeruginosa (Pseudomonas aeruginosa (924190)), more than 512 μg/ml; in the series on Pseudomonas aeruginosa (Pseudomonas aeruginosa (985543)), 512 μg/ml; in the series with Staphylococcus aureus (Staphylococcus aureus (918019 - MRSA)) it was 128 μg/ml. The “MBC, lowest concentration providing a >3-log reduction within 24 hours (Combo as F/DP/SM; second compound as DP/SM)” value with Staphylococcus aureus (Staphylococcus aureus (959797 - MRSA)) worked out at 64 μg/ml; in the series on Staphylococcus aureus (Staphylococcus aureus (ATCC 29213 - MSSA)), 128 μg/ml; with Staphylococcus aureus (Staphylococcus aureus (ATCC 33591) (MRSA)), 256 μg/ml; in the series on Staphylococcus aureus (Staphylococcus aureus (MGH-04)), 256 μg/ml; in the series with Staphylococcus aureus (Staphylococcus aureus (USA-300 CDC- MRSA)), 256 μg/ml. The “frequency of spontaneous mutants resistant (spontaneous mutational frequency, SMF)” value in the series with bacteria is recorded as 6.33×10^−6. Further, the kel (elimination rate constant) in series [1] (Dose: Fosfomycin 3000 mg, trimethoprim 720 mg) was determined as 0.122 h⁻¹. In addition, the half-life in series [1] (in vivo, 3000 mg, read-out: T ½ (converted)) was 5.7 h. In addition, the time to peak (Tmax) (commonly the time from dosing to the highest level) in series [1] (in vivo, read-out: Tmax) is 2 h.
